Test results published in the supplement of paper PMC10307832.

How the values were obtained:
Experiment in all cases: relative viability (nuclei count vs DMSO), 5 days (fraction); higher = more cells survive
[1] = compound: CC1=NC=CC(=C1)C2=CC=C(C=C2)CC(=O)NC3=CC=C(C=C3)C4=CN=CC=C4 [Wnt-C59] + CS(=O)(=O)CCNCc1ccc(-c2ccc3ncnc(Nc4ccc(OCc5cccc(F)c5)c(Cl)c4)c3c2)o1 [Lapatinib] (partner 2 µM)
Summary of the method: (§1)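 Lung cancer cell lines in 1536-well plates were dosed by pin tool the day after seeding, either with one drug alone or with a fixed anchor-drug dose plus five library-drug doses (not always all listed) in √10 steps. After 5 days, cells were fixed and their nuclei stained in one step (final 0.05% Triton X-100, 1% formaldehyde, 1 ug/ml Hoechst), then counted on 4× images. Relative viability is the nuclei count in treated wells divided by that in vehicle wells. Values are medians of duplicate plates.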

[2] = compound: CC1=NC=CC(=C1)C2=CC=C(C=C2)CC(=O)NC3=CC=C(C=C3)C4=CN=CC=C4 [Wnt-C59] + O=C(c1cc(Cc2n[nH]c(=O)c3ccccc23)ccc1F)N1CCN(C(=O)C2CC2)CC1 [Olaparib] (partner 8 µM)
Summary of the method: as §1

[3] = compound: CS(=O)(=O)CCNCc1ccc(-c2ccc3ncnc(Nc4ccc(OCc5cccc(F)c5)c(Cl)c4)c3c2)o1 [Lapatinib] + CCNC(=O)c1noc(-c2cc(C(C)C)c(O)cc2O)c1-c1ccc(CN2CCOCC2)cc1 [Luminespib] (partner 0.01 µM)
Summary of the method: as §1

[4] = compound: CS(=O)(=O)CCNCc1ccc(-c2ccc3ncnc(Nc4ccc(OCc5cccc(F)c5)c(Cl)c4)c3c2)o1 [Lapatinib] + Cc1nc(NC(=O)N2CCC[C@H]2C(N)=O)sc1-c1ccnc(C(C)(C)C(F)(F)F)c1 [Alpelisib] (partner 2 µM)
Summary of the method: as §1

Cell Line	relative viability ([1]; first compound 0.001 µM)	relative viability ([1]; first compound 0.01 µM)	relative viability ([1]; first compound 0.03162 µM)	relative viability ([1]; first compound 0.1 µM)	relative viability ([2]; first compound 0.001 µM)	relative viability ([2]; first compound 0.01 µM)	relative viability ([2]; first compound 0.03162 µM)	relative viability ([2]; first compound 0.1 µM)	relative viability ([3]; first compound 0.02 µM)	relative viability ([3]; first compound 0.06325 µM)	relative viability ([3]; first compound 0.2 µM)	relative viability ([3]; first compound 0.6325 µM)	relative viability ([3]; first compound 2 µM)	relative viability ([4]; first compound 0.02 µM)	relative viability ([4]; first compound 0.06325 µM)	relative viability ([4]; first compound 0.2 µM)	relative viability ([4]; first compound 0.6325 µM)	relative viability ([4]; first compound 2 µM)
201T	0.985	1.04	1.03	0.991	0.845	0.884	0.841	0.867	1.02	0.976	1.03	1.03	1.04	0.998	0.834	0.993	1	0.943
A549	1.04	1.02	0.966	0.988	0.302	0.321	0.357	0.332	–	–	–	–	–	0.609	0.528	0.755	0.665	0.516
A-427	1.04	1.01	1.09	1.11	0.767	0.79	0.751	0.789	–	0.751	0.96	0.959	1.1	–	1.04	1.1	1.07	1.04
ABC-1	1.1	1.18	1.14	1.19	1	0.898	0.502	0.846	–	–	0.509	–	0.64	–	1.06	1.23	0.88	0.838
BEN	0.825	0.804	0.736	0.641	1.32	1.04	1.27	0.94	–	0.564	0.229	0.402	0.417	0.961	0.904	1.19	0.909	0.853
CAL-12T	0.614	–	0.761	0.625	0.727	0.689	0.674	0.783	–	0.236	0.477	0.235	0.35	1.05	1.26	1.25	1.13	0.417
COR-L23	1.04	0.851	1.05	0.797	0.295	0.309	0.362	0.32	0.715	0.688	0.731	0.646	0.567	0.694	0.602	0.871	0.752	0.688
COR-L 105	0.342	0.381	0.407	0.358	0.708	0.727	0.684	0.656	0.592	0.698	0.857	0.716	0.6	0.872	0.765	1.03	0.804	0.294
Calu-6	1.07	1.06	1.08	0.951	0.572	0.576	0.698	0.614	–	–	–	–	–	0.919	0.93	1.06	1.01	0.894
ChaGo-K-1	–	–	–	–	0.419	0.417	0.462	0.435	0.636	0.448	0.603	0.563	0.57	–	–	–	–	–
EBC-1	0.203	0.214	0.18	0.208	0.742	0.75	0.681	0.635	–	–	–	–	–	0.826	0.766	0.889	0.801	0.695
EKVX	0.244	0.183	0.151	0.206	0.837	–	0.906	0.72	0.712	0.804	0.767	0.853	0.447	0.869	0.675	0.845	0.575	0.212
EMC-BAC-2	0.828	0.755	0.849	0.794	0.497	0.488	0.486	0.482	1.09	0.998	1.19	1.06	1.08	0.72	0.652	0.694	0.622	0.592
EPLC-272H	0.837	0.959	1.19	0.954	0.778	0.854	0.942	0.842	–	–	0.44	0.205	0.359	–	0.807	0.819	0.746	0.821
H3255	0.278	0.283	0.259	0.242	0.641	0.458	0.56	0.526	0.471	0.676	0.879	0.805	0.757	0.591	0.506	0.643	0.635	0.232
HARA	0.649	0.746	0.876	0.751	0.826	0.784	0.866	0.856	–	0.58	0.54	0.499	0.399	0.739	0.573	0.593	0.625	0.288
HCC-15	0.859	0.91	0.774	0.823	0.745	0.73	0.738	0.667	–	0.425	0.303	0.293	0.235	–	0.799	0.843	0.857	0.797
HCC-44	1.01	1.03	1.01	1.03	0.981	1.02	0.965	0.92	–	0.716	1.14	0.965	1.06	0.689	0.621	0.75	0.873	0.535
HCC-78	0.632	0.721	0.901	0.741	0.883	0.852	0.855	0.633	–	–	–	–	–	–	0.277	0.305	0.26	0.15
HCC-366	1.16	0.999	1.07	0.976	0.346	0.359	0.362	0.34	–	–	–	–	–	–	0.282	0.381	0.446	0.242
